Measurements reported in US20070254853A1, “Compositions and Methods for Promotion of Wound Healing” (BOARD OF REGENTS, THE UNIVERSITY OF TEXAS SYSTEM, priority 2006, published 2007).

Experiments:
[1] = system: 8 mm full thickness dorsal skin punch wound; experiment: Sirolimus dose response on healing of a full thickness skin punch wound; assay type: in vivo, Balb/c mice
Description: Sirolimus is an effective immunosuppressant that has been associated with delayed wound healing. On a full thickness skin murine model of immunosuppression and decreased wound healing, the Sirolimus dose that delayed wound healing was first determined.
Methods: For 2 weeks Balb/c mice were gavage-fed saline, 4 mg/kg, 8 mg/kg or 12 mg/kg Sirolimus (10 per group). After drug loading, an 8 mm in diameter full thickness dorsal skin punch wound was made in each mouse. Every second day digital pictures of the wound were taken and analyzed. After determining the effective Sirolimus dose that causes decreased wound healing and immunosuppression, 40 Balb/c mice were gavaged with 8 mg/kg of Sirolimus every other day. After establishing the punch wounds, the mono and dinucleotides were applied topically daily. The topical treatment was applied using the following formulations (10 mice per group): a mixture of mono and dinucleotides derived from RNA in 0.025%, 0.25% and 2.5% concentrations and one group with KY jelly as control. Every second day a digital picture was taken and wound size measured. P2Y2 receptor expression was qualitatively assessed using immunohistology and receptor specific antibodies. T-test was used to compare the groups.

[2] = system: 4 mm punch wound on the dorsal surface; experiment: Topical applications for wound healing in mice (4 mm punch wound, three dietary groups); assay type: in vivo, Balb/c mice; conditions: 100 μM topical, in place of uracil; with or without CCM; four times over two weeks
Text: Balb/c mice were divided into three dietary groups (F=normal mouse chow; NF=nucleotide free mouse chow; and NFR=nucleotide free mouse chow supplemented with yeast RNA). Each group was fed before initiation of wounds. After 4 weeks of feeding, a 4 mm punch wound was created on the dorsal surface of each mouse, using a 4 mm biopsy punch. The wounds were coated with four different topical agents: (1) saline; (2) uracil ([…]); (3) saline+CCM; and (4) Uracil+CCM (CCM=crosslinked collagen mesh). CCM (“Collagen Permeable Membrane”) from Accurate Chemical & Scientific Corporation, Catalog No. YIC 152299. Four mm size circles were soaked with appropriate nucleotide or saline solution (4 mm punch wounds) and used to dress the wounds.
Twelve groups were formed from these combinations (n=3). Mice were continued on their respective diets. Wounds were observed visually and photographed at four different times during the period of two weeks. These studies were repeated using a 100 μM concentration of inosine in place of uracil as the topical agent.

| Compound | effect on wound healing ([1]; 4 mg/kg gavage for 2 weeks) | effect on wound healing ([1]; 8 mg/kg gavage for 2 weeks, day 4 and after) | effect on wound healing ([1]; 12 mg/kg gavage for 2 weeks, day 4 and after) | wound healing, wounds observed visually and photographed [2] |
| --- | --- | --- | --- | --- |
| CO[C@H]1C[C@@H]2CC[C@@H](C)[C@@](O)(O2)C(=O)C(=O)N2CCCC[C@H]2C(=O)O[C@H]([C@H](C)C[C@@H]2CC[C@@H](O)[C@H](OC)C2)CC(=O)[C@H](C)/C=C(\C)[C@@H](O)[C@@H](OC)C(=O)[C@H](C)C[C@H](C)/C=C/C=C/C=C/1C [Sirolimus] | no effect on wound healing | delayed wound healing in a significant manner | delayed wound healing in a significant manner | – |
| OC[C@H]1O[C@@H](n2cnc3c(O)ncnc32)[C@H](O)[C@@H]1O [inosine] | – | – | – | no significant differences from that which was seen with the uracil |
